Values of other authors in patent US7470509B2, “Compositions and methods for the identification, assessment, prevention and therapy of ovarian cancer” (Millennium Pharmaceuticals, Inc., priority 2002, dated 2008).

Tested on: tumor
Conditions: U.S. Pat. No. 5,840,929

CC(=O)O[C@@]12CO[C@@H]1C[C@H](O)[C@@]1(C)C(=O)[C@H](O)C3=C(C)[C@@H](OC(=O)[C@H](O)[C@@H](NC(=O)OC(C)(C)C)c4ccccc4)C[C@@](O)([C@@H](OC(=O)c4ccccc4)[C@H]21)C3(C)C [Taxotere, docetaxel]
anti-tumor activity in animal models: good anti-tumor activity
